From patent US10463644B2, “Uses of sesquiterpene lactone compounds and their derivatives in drugs preparation” (ACCENDATECH, priority 2013, dated 2019)
Read-outs that look alike come from different tables or passages of the source.

Legend:
[1] = tested on: TNF-α secreted by synoviocyte; experiment: Content of TNF-α in culture supernatant of synoviocyte of RA model rats given test compound; type: in vivo; settings: rat RA model, dose 30 mg/kg.2d; normal control 0.38 ± 0.027, NaCl 0.74 ± 0.098
Procedure, shortened: (§1)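 Rat RA model; dosing 30 mg/kg.2d; normal and NaCl control groups. Synoviocyte culture supernatant collected; TNF-α and PGE2 measured by one established method, IL-1β by a separate method.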

[2] = tested on: IL-1β secreted by synoviocyte; experiment: Content of IL-1β in culture supernatant of synoviocyte of RA model rats given test compound; type: in vivo; settings: rat RA model, dose 30 mg/kg.2d; normal control 0.16 ± 0.034, NaCl 0.49 ± 0.136
Procedure, shortened: as §1

[3] = tested on: PGE2 secreted by synoviocyte; experiment: Content of PGE2 in culture supernatant of synoviocyte of RA model rats given test compound; type: in vivo; settings: rat RA model, dose 30 mg/kg.2d; normal control 8.34 ± 1.29, NaCl 32.44 ± 10.32
Procedure, shortened: as §1

cancer stem cells = experiment: Survival rate of cancer stem cells after test compound is added (flow cytometry, Annexin V-FITC/PI, clinical specimen); type: cell-based, patient; settings: Homo sapiens, 18 h
Procedure, shortened: (§2)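 Survival was determined in clinical specimens after an 18 h compound treatment, using Annexin V-FITC/PI apoptosis staining and flow cytometry.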

cancer cells = experiment: Survival rate of cancer cells after test compound is added (flow cytometry, Annexin V-FITC/PI, clinical specimen); type: cell-based, patient; settings: Homo sapiens, 18 h, read-out: Survival rate (%) All cells (Stem cells and ordinary cells)
Procedure, shortened: as §2

[4] = Head and neck squamous cell carcinomas

For `C=C1C(=O)O[C@H]2[C@H]1CCC(C)=C1CC[C@@](C)(OC(=O)CCCc3cn(CCCCCCO)nn3)[C@@H]12` [Compound 21], the “Content of TNF-α in culture supernatant of synoviocyte (x ± s)” value [1] was 0.56 ± 0.034 ng/mL, the “Content of IL-1β in culture supernatant of synoviocyte (x ± s)” value [2] was 0.36 ± 0.057 ng/mL and the “Content of PGE2 in culture supernatant of synoviocyte (x ± s)” value [3] was 19.59 ± 3.25 ng/mL. It also gave a viability at 10 µM (cancer stem cells; AML) of 66%, a viability at 20 µM (cancer stem cells; AML) of 47% and a viability at 10 µM (cancer stem cells; Brain glioma) of 68%. It also gave a viability at 20 µM (cancer stem cells; Brain glioma) of 53%, a viability at 10 µM (cancer stem cells; Brain tumor) of 65% and a viability at 20 µM (cancer stem cells; Brain tumor) of 54%. The viability at 10 µM (cancer stem cells; Breast cancer) was 62%, the viability at 20 µM (cancer stem cells; Breast cancer) was 55% and the viability at 10 µM (cancer stem cells; CLL) was 51%. For the same molecule, the viability at 20 µM (cancer stem cells; CLL) was 48%, the viability at 10 µM (cancer stem cells; CML) was 75% and the viability at 20 µM (cancer stem cells; CML) was 56%. The viability at 10 µM (cancer stem cells; Children hepatoblastoma) was 74%, the viability at 20 µM (cancer stem cells; Children hepatoblastoma) was 57% and the viability at 10 µM (cancer stem cells; Colon adenocarcinoma) was 58%. For the same molecule, the viability at 20 µM (cancer stem cells; Colon adenocarcinoma) was 44%, the viability at 10 µM (cancer stem cells; Colorectal cancer) was 73% and the viability at 20 µM (cancer stem cells; Colorectal cancer) was 58%. It also gave a viability at 10 µM (cancer stem cells; Gastric cancer) of 56%, a viability at 20 µM (cancer stem cells; Gastric cancer) of 45% and a viability at 10 µM (cancer stem cells; Gastrointestinal tumor) of 64%. It also gave a viability at 20 µM (cancer stem cells; Gastrointestinal tumor) of 46%, a viability at 10 µM (cancer stem cells; Glioma) of 78% and a viability at 20 µM (cancer stem cells; Glioma) of 67%. For the same molecule, the viability at 10 µM (cancer stem cells; [4]) was 75%, the viability at 20 µM (cancer stem cells; [4]) was 66% and the viability at 10 µM (cancer stem cells; Laryngeal cancer) was 66%. It also gave a viability at 20 µM (cancer stem cells; Laryngeal cancer) of 52%, a viability at 10 µM (cancer stem cells; Liver cancer) of 64% and a viability at 20 µM (cancer stem cells; Liver cancer) of 55%. It also gave a viability at 10 µM (cancer stem cells; Lung adenocarcinoma) of 58%, a viability at 20 µM (cancer stem cells; Lung adenocarcinoma) of 49% and a viability at 10 µM (cancer stem cells; Lung cancer) of 63%. For the same molecule, the viability at 20 µM (cancer stem cells; Lung cancer) was 54%, the viability at 10 µM (cancer stem cells; Malignant melanoma) was 59% and the viability at 20 µM (cancer stem cells; Malignant melanoma) was 45%. It also gave a viability at 10 µM (cancer stem cells; Nasopharynx cancer) of 55%, a viability at 20 µM (cancer stem cells; Nasopharynx cancer) of 42% and a viability at 10 µM (cancer stem cells; Ovarian cancer) of 56%. The viability at 20 µM (cancer stem cells; Ovarian cancer) was 49%, the viability at 10 µM (cancer stem cells; Pancreatic cancer) was 57% and the viability at 20 µM (cancer stem cells; Pancreatic cancer) was 50%. For the same molecule, the viability at 10 µM (cancer stem cells; Prostate cancer) was 68%, the viability at 20 µM (cancer stem cells; Prostate cancer) was 57% and the viability at 10 µM (cancer stem cells; Retinoblastoma) was 56%. It also gave a viability at 20 µM (cancer stem cells; Retinoblastoma) of 47%, a viability at 10 µM (cancer stem cells; Skin cancer) of 56% and a viability at 20 µM (cancer stem cells; Skin cancer) of 47%. For the same molecule, the viability at 10 µM (cancer cells; AML) was 75%, the viability at 20 µM (cancer cells; AML) was 56% and the viability at 10 µM (cancer cells; Brain glioma) was 79%. For the same molecule, the viability at 20 µM (cancer cells; Brain glioma) was 68%, the viability at 10 µM (cancer cells; Brain tumor) was 75% and the viability at 20 µM (cancer cells; Brain tumor) was 62%. For the same molecule, the viability at 10 µM (cancer cells; Breast cancer) was 72%, the viability at 20 µM (cancer cells; Breast cancer) was 66% and the viability at 10 µM (cancer cells; CLL) was 63%. For the same molecule, the viability at 20 µM (cancer cells; CLL) was 62%, the viability at 10 µM (cancer cells; CML) was 82% and the viability at 20 µM (cancer cells; CML) was 69%. It also gave a viability at 10 µM (cancer cells; Children hepatoblastoma) of 81%, a viability at 20 µM (cancer cells; Children hepatoblastoma) of 66% and a viability at 10 µM (cancer cells; Colon adenocarcinoma) of 71%. The viability at 20 µM (cancer cells; Colon adenocarcinoma) was 56%, the viability at 10 µM (cancer cells; Colorectal cancer) was 78% and the viability at 20 µM (cancer cells; Colorectal cancer) was 67%. For the same molecule, the viability at 10 µM (cancer cells; Gastric cancer) was 67%, the viability at 20 µM (cancer cells; Gastric cancer) was 55% and the viability at 10 µM (cancer cells; Gastrointestinal tumor) was 75%. For the same molecule, the viability at 20 µM (cancer cells; Gastrointestinal tumor) was 58%, the viability at 10 µM (cancer cells; Glioma) was 87% and the viability at 20 µM (cancer cells; Glioma) was 78%. For the same molecule, the viability at 10 µM (cancer cells; [4]) was 86%, the viability at 20 µM (cancer cells; [4]) was 82% and the viability at 10 µM (cancer cells; Laryngeal cancer) was 73%. It also gave a viability at 20 µM (cancer cells; Laryngeal cancer) of 61%, a viability at 10 µM (cancer cells; Liver cancer) of 77% and a viability at 20 µM (cancer cells; Liver cancer) of 61%. The viability at 10 µM (cancer cells; Lung adenocarcinoma) was 67%, the viability at 20 µM (cancer cells; Lung adenocarcinoma) was 64% and the viability at 10 µM (cancer cells; Lung cancer) was 74%. For the same molecule, the viability at 20 µM (cancer cells; Lung cancer) was 68%, the viability at 10 µM (cancer cells; Malignant melanoma) was 69% and the viability at 20 µM (cancer cells; Malignant melanoma) was 56%. The viability at 10 µM (cancer cells; Nasopharynx cancer) was 65%, the viability at 20 µM (cancer cells; Nasopharynx cancer) was 56% and the viability at 10 µM (cancer cells; Ovarian cancer) was 64%. For the same molecule, the viability at 20 µM (cancer cells; Ovarian cancer) was 57%, the viability at 10 µM (cancer cells; Pancreatic cancer) was 66% and the viability at 20 µM (cancer cells; Pancreatic cancer) was 62%. For the same molecule, the viability at 10 µM (cancer cells; Prostate cancer) was 77%, the viability at 20 µM (cancer cells; Prostate cancer) was 65% and the viability at 10 µM (cancer cells; Retinoblastoma) was 65%. It also gave a viability at 20 µM (cancer cells; Retinoblastoma) of 59%, a viability at 10 µM (cancer cells; Skin cancer) of 64% and a viability at 20 µM (cancer cells; Skin cancer) of 57%.
